# Where two headings read alike, the source gives them in different places.
# Key:
# [1] = tested on: human monocytic cell line U937; assay: Human U937 cellular necroptosis assay (TNFalpha + z-VAD-FMK, Cell Titer-Glo viability); format: cell-based; conditions: U937 cells, 25 ng/mL human TNFalpha + 25 μM z-VAD-FMK, read-out: hU937 Avg IC50
# Method in brief: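 Readout is CellTiter-Glo 2.0 luminescence after 22 h at 37° C with compound, in cells triggered by human TNFalpha (25 ng/mL) and z-VAD-FMK (25 μM) in phenol red-free RPMI/10% FBS. Values are run-averaged IC50s from a four-parameter logistic curve.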
# RIPK1 = RIPK1 (Homo sapiens (Human), UniProt Q13546); assay: ADP-Glo kinase assay (RIPK1 activity, conversion of ATP to ADP); format: biochemical; conditions: 5 nM RIPK1, 50 μM ATP, 6 h reaction; read-out: RIPK1 Enzyme Avg IC50
# Method in brief: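 RIPK1 (5 nM final) was preincubated 10 min at rt with 1:3-diluted compounds in HEPES pH 7.5/MgCl2/DTT/BSA/CHAPS buffer. ATP (50 μM final) was then added for 6 h, and ADP formed was read by ADP-Glo luminescence. IC50 values came from four-parameter logistic fitting.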
# Chain of RIPK1 (Q13546 1-327): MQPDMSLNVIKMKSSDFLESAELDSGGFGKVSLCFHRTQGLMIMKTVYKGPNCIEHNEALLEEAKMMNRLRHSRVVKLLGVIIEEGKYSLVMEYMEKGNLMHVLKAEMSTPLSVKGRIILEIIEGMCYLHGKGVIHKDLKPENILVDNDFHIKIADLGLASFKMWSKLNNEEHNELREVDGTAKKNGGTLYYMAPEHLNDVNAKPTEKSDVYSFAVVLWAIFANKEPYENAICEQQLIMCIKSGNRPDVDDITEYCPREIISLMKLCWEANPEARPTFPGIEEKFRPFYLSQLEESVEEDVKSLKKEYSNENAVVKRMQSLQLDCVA
Compound,"IC50 ([1]; Homo sapiens, U-937, 22 h) [nM]",IC50 (RIPK1) [nM],IC50 ([1]; 22 h) [nM]
"N#Cc1ccc2c(ccn2CC23CC(C(=O)N4N=CCC4c4cc(F)cc(F)c4)(C2)C3)n1 (stereo not shown) [Example 210, 1-((3-(5-(3,5-difluorophenyl)-4,5-dihydro-1H-pyrazole-1-carbonyl)bicyclo[1.1.1]pentan-1-yl)methyl)-1H-pyrrolo[3,2-b]pyridine-5-carbonitrile]",10,9.4,
"N#Cc1cccc2c1cnn2CC12CC(C(=O)N3N=CCC3c3cc(F)cc(F)c3)(C1)C2 (stereo not shown) [Example 67, 1-((3-(5-(3,5-difluorophenyl)-4,5-dihydro-1H-pyrazole-1-carbonyl)bicyclo[1.1.1]-pentan-1-yl)methyl)-1H-indazole-4-carbonitrile]",54,19,
"CC1CC(c2cccc(F)c2)N(C(=O)C23CC(Cn4cc(C#N)cn4)(C2)C3)C1 (stereo not shown) [Example 172, 1-((3-(2-(3-fluorophenyl)-4-methylpyrrolidine-1-carbonyl)bicyclo[1.1.1]-pentan-1-yl)methyl)-1H-pyrazole-4-carbonitrile]",> 10000,4350,
"Cc1cn(CC23CC(C(=O)N4N=CCC4c4cc(F)cc(F)c4)(C2)C3)nc1C#N (stereo not shown) [Example 157, 1-((3-(5-(3,5-difluorophenyl)-4,5-dihydro-1H-pyrazole-1-carbonyl)bicyclo[1.1.1]-pentan-1-yl)methyl)-4-methyl-1H-pyrazole-3-carbonitrile]",170,42,
"Cc1cncc(C2CC=NN2C(=O)C23CC(Cn4ncc5cc(C#N)ccc54)(C2)C3)n1 (stereo not shown) [Example 50, 1-((3-(5-(6-methylpyrazin-2-yl)-4,5-dihydro-1H-pyrazole-1-carbonyl)bicyclo[1.1.1]pentan-1-yl)methyl)-1H-indazole-5-carbonitrile]",36,16,
"O=C(N1N=CCC1c1cc(F)cc(F)c1)C12CC(COc3ccc(F)cc3F)(C1)C2 (stereo not shown) [Example 335, (3-((2,4-difluorophenoxy)-methyl)bicyclo[1.1.1]pentan-1-yl)(5-(3,5-difluorophenyl)-4,5-dihydro-1H-pyrazol-1-yl)methanone]",46,18,
"N#Cc1ccc2nn(CC34CC(C(=O)N5N=CCC5c5cc(F)cc(F)c5)(C3)C4)cc2c1 (stereo not shown) [Example 61, 2-((3-(5-(3,5-difluorophenyl)-4,5-dihydro-1H-pyrazole-1-carbonyl)bicyclo[1.1.1]-pentan-1-yl)methyl)-2H-indazole-5-carbonitrile]",211,45,
"O=C(N1N=CCC1c1cc(F)cc(F)c1)C12CC(Cn3cc4ncccc4n3)(C1)C2 (stereo not shown) [Example 59, (3-((2H-pyrazolo[4,3-b]-pyridin-2-yl)methyl)bicyclo-[1.1.1]pentan-1-yl)(5-(3,5-difluorophenyl)-4,5-dihydro-1H-pyrazol-1-yl)methanone]",226,43,
"O=C(N1N=CCC1c1cc(F)ccc1F)C12CC(Cn3ncc4c(F)cccc43)(C1)C2 (stereo not shown) [Example 84, (5-(2,5-difluorophenyl)-4,5-dihydro-1H-pyrazol-1-yl)(3-((4-fluoro-1H-indazol-1-yl)-methyl)bicyclo[1.1.1]pentan-1-yl)methanone]",3,22,
"N#Cc1cncc(C2CC=NN2C(=O)C23CC(Cn4ncc5cc(C#N)ccc54)(C2)C3)c1 (stereo not shown) [Example 173, 1-((3-(5-(5-cyanopyridin-3-yl)-4,5-dihydro-1H-pyrazole-1-carbonyl)bicyclo[1.1.1]-pentan-1-yl)methyl)-1H-indazole-5-carbonitrile]",53,9.1,
"Cc1cnc(C2CC=NN2C(=O)C23CC(Cn4ncc5cc(C#N)ccc54)(C2)C3)cn1 (stereo not shown) [Example 49, 1-((3-(5-(5-Methylpyrazin-2-yl)-4,5-dihydro-1H-pyrazole-1-carbonyl)-bicyclo[1.1.1]pentan-1-yl)methyl)-1H-indazole-5-carbonitrile]",67,22,
"O=C(N1N=CCC1c1cc(F)cc(F)c1)C12CC(Cn3cc(C4CC4)nn3)(C1)C2 (stereo not shown) [Example 159, (3-((4-cyclopropyl-1H-1,2,3-triazol-1-yl)methyl)bicyclo-[1.1.1]pentan-1-yl)(5-(3,5-difluorophenyl)-4,5-dihydro-1H-pyrazol-1-yl)methanone]",3610,1120,
"N#Cc1ccc2c(cnn2CC23CC(C(=O)N4N=CCC4c4cc(F)cc(F)c4)(C2)C3)c1 (stereo not shown) [Example 64, 1-((3-(5-(3,5-difluorophenyl)-4,5-dihydro-1H-pyrazole-1-carbonyl)bicyclo[1.1.1]-pentan-1-yl)methyl)-1H-indazole-5-carbonitrile]",7,10,
"O=C(N1N=CCC1c1cc(F)cc(F)c1)C12CC(Cn3ccc4cc(F)ccc43)(C1)C2 (stereo not shown) [Example 133, (5-(3,5-difluorophenyl)-4,5-dihydro-1H-pyrazol-1-yl)(3-((5-fluoro-1H-indol-1-yl)-methyl)bicyclo[1.1.1]pentan-1-yl)methanone]",10,20,
"N#Cc1ccc2cn(CC34CC(C(=O)N5N=CCC5c5cc(F)cc(F)c5)(C3)C4)nc2c1 (stereo not shown) [Example 56, 2-((3-(5-(3,5-difluorophenyl)-4,5-dihydro-1H-pyrazole-1-carbonyl)bicyclo[1.1.1]-pentan-1-yl)methyl)-2H-indazole-6-carbonitrile]",63,19,
"(5-(3,5-difluorophenyl)-4,5-dihydro-1H-pyrazol-1-yl)(3-((6-fluoro-1H-benzo[d]-imidazol-1-yl)methyl)-bicyclo[1.1.1]pentan-1-yl)methanone and (5-(3,5-difluorophenyl)-4,5-dihydro-1H-pyrazol-1-yl)(3-((5-fluoro-1H-benzo[d]-imidazol-1-yl)methyl)-bicyclo[1.1.1]pentan-1-yl)methanone [Example 192]",,80,197
"O=C(N1CC(F)CC1c1cccc(F)c1)C12CC(COc3ccccc3)(C1)C2 (stereo not shown) [Example 31, (4-Fluoro-2-(3-fluorophenyl)pyrrolidin-1-yl)(3-(phenoxymethyl)-bicyclo[1.1.1]pentan-1-yl)methanone]",462,55,
"N#Cc1ncn(CC23CC(C(=O)N4N=CCC4c4cc(F)cc(F)c4)(C2)C3)n1 (stereo not shown) [Example 178, 1-((3-(5-(3,5-difluorophenyl)-4.5-dihydro-1H-pyrazole-1-carbonyl)bicyclo[1.1.1]-pentan-1-yl)methyl)-1H-1,2,4-triazole-3-carbonitrile]",228,103,
"N#Cc1cnc2cn(CC34CC(C(=O)N5N=CCC5c5cc(F)cc(F)c5)(C3)C4)nc2c1 (stereo not shown) [Example 222, 2-((3-(5-(3,5-difluorophenyl)-4,5-dihydro-1H-pyrazole-1-carbonyl)bicyclo[1.1.1]pentan-1-yl)methyl)-2H-pyrazolo[4,3-b]pyridine-6-carbonitrile]",1100,220,
"NC(=O)c1cnnn1CC12CC(C(=O)N3N=CCC3c3cc(F)cc(F)c3)(C1)C2 (stereo not shown) [Example 55, 1-((3-(5-(3,5-difluorophenyl)-4,5-dihydro-1H-pyrazole-1-carbonyl)-bicyclo[1.1.1]pentan-1-yl)methyl)-1H-1,2,3-triazole-5-carboxamide]",8930,896,
"N#Cc1ccc2c(cnn2CC23CC(C(=O)N4CC(F)CC4c4cccc(F)c4)(C2)C3)c1 (stereo not shown) [Example 176, 1-((3-(4-fluoro-2-(3-fluoro-phenyl)pyrrolidine-1-carbonyl)bicyclo[1.1.1]-pentan-1-yl)methyl)-1H-indazole-5-carbonitrile]",87,19,
"O=C(N1N=CCC1c1cc(F)cc(F)c1)C12CC(COc3cc(F)ccc3F)(C1)C2 (stereo not shown) [Example 338, (3-((2,5-difluorophenoxy)-methyl)bicyclo[1.1.1]pentan-1-yl)(5-(3,5-difluorophenyl)-4,5-dihydro-1H-pyrazol-1-yl)methanone]",165,26,
"N#Cc1cnn(CC23CC(C(=O)N4N=CCC4c4cc(F)cc(F)c4)(C2)C3)c1 (stereo not shown) [Example 71, 1-((3-(5-(3,5-difluorophenyl)-4,5-dihydro-1H-pyrazole-1-carbonyl)bicyclo[1.1.1]-pentan-1-yl)methyl)-1H-pyrazole-4-carbonitrile]",134,39,
"N#Cc1cccc2cnn(CC34CC(C(=O)N5N=CCC5c5cc(F)cc(F)c5)(C3)C4)c12 (stereo not shown) [Example 143, 1-((3-(5-(3,5-difluorophenyl)-4,5-dihydro-1H-pyrazole-1-carbonyl)bicyclo[1.1.1]-pentan-1-yl)methyl)-1H-indazole-7-carbonitrile]",495,122,
"N#Cc1cccc(C2CC=NN2C(=O)C23CC(Cn4ncc5ncccc54)(C2)C3)c1 (stereo not shown) [Example 139, 3-(1-(3-((1H-pyrazolo[4,3-b]-pyridin-1-yl)methyl)bicyclo-[1.1.1]pentane-1-carbonyl)-4,5-dihydro-1H-pyrazol-5-yl)benzonitrile]",493,95,
"O=C(N1N=CCC1c1cc(F)cc(F)c1)C12CC(COc3ncc(F)cc3F)(C1)C2 (stereo not shown) [Example 321, (5-(3,5-difluorophenyl)-4,5-dihydro-1H-pyrazol-1-yl)(3-(((3,5-difluoropyridin-2-yl)-oxy)methyl)bicyclo[1.1.1]-pentan-1-yl)methanone]",45,18,

# — patent US20250214942A1, “INHIBITORS OF RECEPTOR INTERACTING PROTEIN KINASE I FOR THE TREATMENT OF DISEASE” (Board of Regents, The University of Texas System, priority 2019, published 2025)
